Source: patent US9708498B2, “Azo compound, ink containing azo compound, display including said ink and electronic paper” (MITSUBISHI CHEMICAL CORPORATION, priority 2012, dated 2017)

Experiment: Absorption spectrum of n-decane solution: solution color, absorption maximum wavelength λmax, molar extinction coefficient ε
Assay type: physicochemical
Settings: 10 mm quartz cell
Description: The solution color, absorption maximum wavelength (λmax), solubility C in 5° C. n-decane, molar extinction coefficient ε, and εC of each ink are summarized in Table 4.
One milligram of each of compound 1 and comparative compounds 1 and 2 was dissolved in 100 mL of the solvent, and the solution was examined for absorption spectrum with Hitachi Spectrophotometer U-4100 using a quartz cell having a measuring optical-path length of 10 mm. From the spectrum obtained, the absorption maximum wavelength λmax (nm) and the molar extinction coefficient E (L·mol^−1·cm^−1) were determined.

Absorption maximum wavelength λmax | Structure (SMILES)
590 nm | CCCCc1ccc(N=Nc2cc(C(=O)OCCC)c(N=Nc3ccc(N(CC(CC)CCCC)CC(CC)CCCC)cc3C)s2)cc1 (stereo not drawn) [Compound 7]
638 nm | CCCCc1ccc(N=Nc2sc(N=Nc3cc(OCC)c(N(CC(CC)CCCC)CC(CC)CCCC)cc3OCC)c(C#N)c2C)cc1 (stereo not drawn) [Compound 4]
595 nm | CCCCc1ccc(N=Nc2cc(C#N)c(N=Nc3sc(N(CC(CC)CCCC)CC(CC)CCCC)nc3C(C)(C)C)s2)c(C)c1 (stereo not drawn) [Compound 11]

More lines, now with the values behind:

Structure (SMILES) | Absorption maximum wavelength λmax
CCCCCc1ccc(N=Nc2cc(C(=O)OCCC)c(N=Nc3ccc(N(CC(CC)CCCC)CC(CC)CCCC)cc3CC)s2)cc1 (stereo not drawn) [Compound 5] | 591 nm
CCCCc1ccc(N=Nc2sc(N=Nc3ccc(N(CC(CC)CCCC)CC(CC)CCCC)cc3C)c(C#N)c2C)cc1 (stereo not drawn) [Compound 2] | 608 nm
CCCCCCSc1nnc(N=Nc2cc(OC)c(N(Cc3ccc(C(C)(C)C)cc3)Cc3ccc(C(C)(C)C)cc3)cc2NC(C)=O)s1 [compound 1, reference compound] | 526 nm
CCCCC(CC)CN(CC(CC)CCCC)c1ccc(N=Nc2sc(N=Nc3ccc(CCC)cc3)c(C)c2C#N)c(NC(C)=O)c1 (stereo not drawn) [Compound 3] | 617 nm
CCCCc1ccc(N=Nc2cc(C#N)c(N=Nc3sc(N(CC(CC)CCCC)CC(CC)CCCC)nc3C(C)(C)C)s2)cc1 (stereo not drawn) [Compound 10] | 595 nm

Same assay, conditions: at λmax

ε (molar extinction coefficient) | Structure (SMILES)
51000 L/mol/cm | CCCCc1ccc(N=Nc2cc(C(=O)OCCC)c(N=Nc3ccc(N(CC(CC)CCCC)CC(CC)CCCC)cc3C)s2)cc1 (stereo not drawn) [Compound 7]
54000 L/mol/cm | CCCCc1ccc(N=Nc2sc(N=Nc3cc(OCC)c(N(CC(CC)CCCC)CC(CC)CCCC)cc3OCC)c(C#N)c2C)cc1 (stereo not drawn) [Compound 4]
59000 L/mol/cm | CCCCc1ccc(N=Nc2cc(C#N)c(N=Nc3sc(N(CC(CC)CCCC)CC(CC)CCCC)nc3C(C)(C)C)s2)c(C)c1 (stereo not drawn) [Compound 11]

Continued, compound first:

Structure (SMILES) | ε (molar extinction coefficient)
CCCCCc1ccc(N=Nc2cc(C(=O)OCCC)c(N=Nc3ccc(N(CC(CC)CCCC)CC(CC)CCCC)cc3CC)s2)cc1 (stereo not drawn) [Compound 5] | 50000 L/mol/cm
CCCCc1ccc(N=Nc2sc(N=Nc3ccc(N(CC(CC)CCCC)CC(CC)CCCC)cc3C)c(C#N)c2C)cc1 (stereo not drawn) [Compound 2] | 62000 L/mol/cm
CCCCCCSc1nnc(N=Nc2cc(OC)c(N(Cc3ccc(C(C)(C)C)cc3)Cc3ccc(C(C)(C)C)cc3)cc2NC(C)=O)s1 [compound 1, reference compound] | 50000 L/mol/cm
CCCCC(CC)CN(CC(CC)CCCC)c1ccc(N=Nc2sc(N=Nc3ccc(CCC)cc3)c(C)c2C#N)c(NC(C)=O)c1 (stereo not drawn) [Compound 3] | 70000 L/mol/cm
CCCCc1ccc(N=Nc2cc(C#N)c(N=Nc3sc(N(CC(CC)CCCC)CC(CC)CCCC)nc3C(C)(C)C)s2)cc1 (stereo not drawn) [Compound 10] | 57000 L/mol/cm

Experiment: Solubility C of the compound in n-decane at 5° C. (saturated solution, absorbance) and product εC
Assay type: physicochemical
Settings: in n-decane at 5° C., 24 hours, 0.1-μm filter
Description: The solubility C of each compound in n-decane was determined in the following manner. Each of compounds 1 to 11 and comparative compound 1 was added to n-decane until some of the compound came to remain undissolved, and the mixture was subjected to an ultrasonic treatment at 30° C. for 30 minutes.
After the addition, each mixture was subjected to a 30-minute ultrasonic treatment at 30° C. This mixture was allowed to stand at 5° C. for 24 hours and then subjected to centrifugal filtration with a 0.1-μm filter using a miniature centrifugal machine (centrifugal force, 5,200×g). The saturated solution obtained was diluted to an adequate concentration and examined for absorption spectrum with Hitachi Spectrophotometer U-4100 using a quartz cell having a measuring optical-path length of 10 mm. The concentration of each compound was determined from a relationship between the absorbance at the absorption maximum wavelength λmax (nm) and the molar extinction coefficient ε (L·mol^−1·cm^−1) determined beforehand, and the solubility C (mol·L^−1) thereof was calculated. Furthermore, the product εC of the molar extinction coefficient ε (L·mol^−1·cm^−1) and the solubility C (mol·L^−1) was determined.

Solubility C | Structure (SMILES)
17.4 mass % | CCCCc1ccc(N=Nc2cc(C(=O)OCCC)c(N=Nc3ccc(N(CC(CC)CCCC)CC(CC)CCCC)cc3C)s2)cc1 (stereo not drawn) [Compound 7]
≧10.5 mass % | CCCCc1ccc(N=Nc2sc(N=Nc3cc(OCC)c(N(CC(CC)CCCC)CC(CC)CCCC)cc3OCC)c(C#N)c2C)cc1 (stereo not drawn) [Compound 4]
≧19.7 mass % | CCCCc1ccc(N=Nc2cc(C#N)c(N=Nc3sc(N(CC(CC)CCCC)CC(CC)CCCC)nc3C(C)(C)C)s2)c(C)c1 (stereo not drawn) [Compound 11]

The remaining lines, values behind:

Structure (SMILES) | Solubility C
CCCCCc1ccc(N=Nc2cc(C(=O)OCCC)c(N=Nc3ccc(N(CC(CC)CCCC)CC(CC)CCCC)cc3CC)s2)cc1 (stereo not drawn) [Compound 5] | ≧20.1 mass %
CCCCc1ccc(N=Nc2sc(N=Nc3ccc(N(CC(CC)CCCC)CC(CC)CCCC)cc3C)c(C#N)c2C)cc1 (stereo not drawn) [Compound 2] | 1.7 mass %
CCCCCCSc1nnc(N=Nc2cc(OC)c(N(Cc3ccc(C(C)(C)C)cc3)Cc3ccc(C(C)(C)C)cc3)cc2NC(C)=O)s1 [compound 1, reference compound] | 9.1 mass %
CCCCC(CC)CN(CC(CC)CCCC)c1ccc(N=Nc2sc(N=Nc3ccc(CCC)cc3)c(C)c2C#N)c(NC(C)=O)c1 (stereo not drawn) [Compound 3] | ≧34.3 mass %
CCCCc1ccc(N=Nc2cc(C#N)c(N=Nc3sc(N(CC(CC)CCCC)CC(CC)CCCC)nc3C(C)(C)C)s2)cc1 (stereo not drawn) [Compound 10] | ≧15 mass %

Same assay, conditions: product of ε and saturation concentration C in n-decane at 5° C.

εC | Structure (SMILES)
9500 cm⁻¹ | CCCCc1ccc(N=Nc2cc(C(=O)OCCC)c(N=Nc3ccc(N(CC(CC)CCCC)CC(CC)CCCC)cc3C)s2)cc1 (stereo not drawn) [Compound 7]
≧6000 cm^−1 | CCCCc1ccc(N=Nc2sc(N=Nc3cc(OCC)c(N(CC(CC)CCCC)CC(CC)CCCC)cc3OCC)c(C#N)c2C)cc1 (stereo not drawn) [Compound 4]
≧12000 cm^−1 | CCCCc1ccc(N=Nc2cc(C#N)c(N=Nc3sc(N(CC(CC)CCCC)CC(CC)CCCC)nc3C(C)(C)C)s2)c(C)c1 (stereo not drawn) [Compound 11]

The remaining lines, values behind:

Structure (SMILES) | εC
CCCCCc1ccc(N=Nc2cc(C(=O)OCCC)c(N=Nc3ccc(N(CC(CC)CCCC)CC(CC)CCCC)cc3CC)s2)cc1 (stereo not drawn) [Compound 5] | ≧10000 cm^−1
CCCCc1ccc(N=Nc2sc(N=Nc3ccc(N(CC(CC)CCCC)CC(CC)CCCC)cc3C)c(C#N)c2C)cc1 (stereo not drawn) [Compound 2] | 1220 cm⁻¹
CCCCCCSc1nnc(N=Nc2cc(OC)c(N(Cc3ccc(C(C)(C)C)cc3)Cc3ccc(C(C)(C)C)cc3)cc2NC(C)=O)s1 [compound 1, reference compound] | 4700 cm⁻¹
CCCCC(CC)CN(CC(CC)CCCC)c1ccc(N=Nc2sc(N=Nc3ccc(CCC)cc3)c(C)c2C#N)c(NC(C)=O)c1 (stereo not drawn) [Compound 3] | ≧20000 cm^−1
CCCCc1ccc(N=Nc2cc(C#N)c(N=Nc3sc(N(CC(CC)CCCC)CC(CC)CCCC)nc3C(C)(C)C)s2)cc1 (stereo not drawn) [Compound 10] | ≧9000 cm^−1

Experiment: Light fastness test (xenon light weatherometer, retention of absorbance)
Assay type: physicochemical
Settings: retention of absorbance at λmax; n-decane solution, xenon light 340 nm, 0.55 W/m^2, 40 hours, 33° C.
Description: The light fastness of compounds 1 to 3, 5, and 7 to 11 and comparative compound 1 was determined in the following manner. In 0.99 g of n-decane was dissolved 0.01 of each compound. This solution was introduced into a cell having an optical-path length of 0.004 mm, and this cell was sealed with an epoxy resin. Using a weatherometer (Atlas Ci4000), the cell was irradiated with xenon light (340 nm; irradiance, 0.55 W/m^2) for 40 hours. During the irradiation, the internal temperature of the test chamber was kept at 33° C.
The retention of each compound was calculated using the following equation.

Light fastness | Structure (SMILES)
A (retention of 100-90%) | CCCCc1ccc(N=Nc2cc(C(=O)OCCC)c(N=Nc3ccc(N(CC(CC)CCCC)CC(CC)CCCC)cc3C)s2)cc1 (stereo not drawn) [Compound 7]
A (retention of 100-90%) | CCCCc1ccc(N=Nc2sc(N=Nc3cc(OCC)c(N(CC(CC)CCCC)CC(CC)CCCC)cc3OCC)c(C#N)c2C)cc1 (stereo not drawn) [Compound 4]
A (retention of 100-90%) | CCCCc1ccc(N=Nc2cc(C#N)c(N=Nc3sc(N(CC(CC)CCCC)CC(CC)CCCC)nc3C(C)(C)C)s2)c(C)c1 (stereo not drawn) [Compound 11]

Second part, the compound before the results:

Structure (SMILES) | Light fastness
CCCCCc1ccc(N=Nc2cc(C(=O)OCCC)c(N=Nc3ccc(N(CC(CC)CCCC)CC(CC)CCCC)cc3CC)s2)cc1 (stereo not drawn) [Compound 5] | A (retention of 100-90%)
CCCCc1ccc(N=Nc2sc(N=Nc3ccc(N(CC(CC)CCCC)CC(CC)CCCC)cc3C)c(C#N)c2C)cc1 (stereo not drawn) [Compound 2] | A (retention of 100-90%)
CCCCCCSc1nnc(N=Nc2cc(OC)c(N(Cc3ccc(C(C)(C)C)cc3)Cc3ccc(C(C)(C)C)cc3)cc2NC(C)=O)s1 [compound 1, reference compound] | D (retention of 49% or less)
CCCCC(CC)CN(CC(CC)CCCC)c1ccc(N=Nc2sc(N=Nc3ccc(CCC)cc3)c(C)c2C#N)c(NC(C)=O)c1 (stereo not drawn) [Compound 3] | A (retention of 100-90%)
CCCCc1ccc(N=Nc2cc(C#N)c(N=Nc3sc(N(CC(CC)CCCC)CC(CC)CCCC)nc3C(C)(C)C)s2)cc1 (stereo not drawn) [Compound 10] | A (retention of 100-90%)

Experiment: Solubility of solvent in water (gas chromatography)
Assay type: physicochemical
Settings: pure water, 25° C.
Description: Into a 110-mL vial were introduced 30 g of pure water and 8 g of the solvent. This vial was shaken for 4 hours at a frequency of 200 times per minute in a 25° C. thermostatic chamber. The liquid which had undergone the shaking was centrifuged (6,000×g; for 5 minutes), and the aqueous layer was sampled. The concentration of the solvent dissolved therein was determined by gas chromatography.

Structure (SMILES) | solubility at 4 h
CCCCCCCCCC [n-decane] | ≤ 1 µg/mL

Experiment: Relative permittivity of solvent (impedance meter method)
Assay type: physicochemical
Settings: 1 kHz, 22° C.
From the text: Precision LCR Meter 4284A, manufactured by Agilent Technologies, Inc., was used to make a measurement by the impedance meter method. […] Relative permittivity=(equivalent parallel capacitance)×(electrode spacing)/(electrode area)/(permittivity of vacuum (ε0))

Structure (SMILES) | relative permittivity
CCCCCCCCCC [n-decane] | 2.0
